In patent publication US5378694A, “Acyl and alkoxy substituted quinolines” (Schering Corporation, priority 1993, dated 1995):
Read-outs that look alike come from different tables or passages of the source.

Assays:
[1] = tested on: HSV-2 (strain MS); experiment: Transient expression of beta galactosidase in transfected HeLa cells superinfected with HSV-2 (HSV-β-Gal assay); type: cell-based; conditions: 24 hours
Method: HeLa and Vero cell cultures were maintained in Eagles Minimal Essential Medium (EMEM) which was supplemented with glutamine, penicillin, streptomycin and 10% fetal calf serum (10% EMEM). Stock cultures of HSV-2 (strain MS available from ATCC VR-540) were grown in and harvested from Vero cells. Viral stocks were titered in Vero cells according to established procedures.
Plasmid pON^ori- 245 contains the promoter of the HSV-1 thymidine kinase (tk) gene located immediately 5' of the E. coli lac Z gene. In this arrangement, the tk promoter controls transcription from the bacterial gene in transient expression assays. Additionally, an SV40 polyadenylation signal is present at the 3' end of the lac Z gene to allow for the efficient translation of the mRNA in eucaryotic cells. The expression of beta galactosidase in a transient assay using pON 245^ori- is dependent upon superinfection of the transfected cells with HSV. […] For example, see European Patent Application No. 88302149.5 filed Mar. 11, 1988 and published Sep. 14, 1988 as 282,330, the disclosure of which is incorporated herein by reference thereto.
HeLa cells were seeded into 96 well microtiter plates and allowed to grow to 80% confluency (approximately 35000 cells/well). One half microgram of plasmid pON 245^ori- DNA was introduced into the cells of each well by the […] precipitation technique (Grabman and Van der Eb, 1973). Four to six hours later, the cells were rinsed with Hank's Balanced Salt Solution (HBSS), overlaid with 10% EMEM and incubated at 37° C. At 24 hours post-transfection, cells were rinsed, overlaid with 10% EMEM again and re-incubated at 37° C. At 48 hours post-transfection, cells were rinsed and overlaid with either EMEM containing 2% fetal calf serum (2% EMEM), 2% EMEM containing HSV-2 (strain MS, Multiplicity of Infection [moi]=5 pfu/cell) or 2% EMEM containing HSV-2 and the appropriate concentration of the compound to be tested. Twenty-four hours later, the cells were harvested and assayed for beta-galactosidase activity as described below.
All determinations of beta galactosidase activity were performed in 96-well microtiter plates. The intracellular level of beta-galactosidase activity in each well was determined from cell lysates of the monolayer cultures. Aliquots were assayed by incubation in the presence of beta-galactosidase substrate, 4-methylumbelliferyl-β-D-galactoside (MUG, 125 ug/ml, Sigma), for 2 hours. The generation of fluorescent product was quantified on a Microfluor microfluorimeter (Dynatech) after addition of 0.1M glycine, pH 10.3 (Spaete and Mocarski, 1985). The inhibitory activity of a compound was plotted versus the concentration and an IC50 value (the concentration in mcg/ml of compound required to reduce beta-galactosidase expression by 50%) was obtained for each compound tested.

[2] = target: T1, cGMP phosphodiesterase (cGMP-PDE) (Bos taurus, UniProt Q28156); experiment: Phosphodiesterase inhibition in vitro (cGMP-PDE); type: biochemical; conditions: bovine lung cGMP-PDE; 1 μM 3H-cGMP, pH 7.5, 25 minutes, room temperature
T1 construct: is a homogeneous enzyme obtained from bovine lung; from tissue; host or cells: bovine lung

[3] = SHR assay, blood pressure in conscious spontaneously hypertensive rats; type: in vivo, rat (spontaneously hypertensive rats; conditions: P.O.
Method: The ability of the compounds to lower blood pressure can be assessed in vivo in conscious spontaneously hypertensive rats (SHRs). SHR males are purchased from Taconic Farms, Germantown, N.Y. and are approximately 16-18 weeks old when anesthetized with ether. The caudal (ventral tail) artery is cannulated with polyethylene tubing (PE50), and blood pressure and heart rate are recorded as described by Baum, T. et. al., J. Cardiovasc. Pharmacol., Vol 5, pp. 655-667 (1983). Rats are placed into plastic cylindrical cages where they rapidly recover consciousness. Blood pressure and heart rate are allowed to stabilize for approximately 90 minutes prior to administration of the test compound. Compounds are administered orally as solutions or suspensions in 0.4% aqueous methylcellulose vehicle via a feeding needle. The compound or 0.4% aqueous methylcellulose vehicle is given in a volume of 4 ml/kg to SHRs that been fasted overnight. Activity is expressed as the fall in mean blood pressure (MBP) in millimeters of mercury (mm Hg). Compound-induced changes are compared with the changes in an appropriate placebo group.

[4] = Compound toxicity assay: inhibition of HeLa cell translation (3H-LEU assay); type: cell-based; conditions: human; HeLa cells, cellular translational activity; read-out: CYTOTOXICITY 3H-LEU ASSAY IC50
Method: HeLa cells were treated with inhibitory compound for 24 hours, after which levels of translational activity were assayed.
For assay of translational activity, HeLa cultures were grown to 80% confluency in 96 well microtiter plates, treated with appropriate concentrations of compound in 2% EMEM during an overnight incubation at 37° C., then rinsed with HBSS and overlaid with […] of 2% EMEM containing 8 μCi of tritiated leucine (^3 H-LEU, 141 Cu/mMol, Amersham Corp., Arlington Heights Ill.). After a 1 hour incubation at 36.5° C., the cells were rinsed twice with phosphate-buffered saline (PBS) and lysed in 400 ul/well of 1 × PBS, 0.5% sodium dodecyl sulphate (SDS). After a 10 min incubation at 36.5° C., the contents of the well were transferred to a well in a Millititer HA microfiltration plate (Millipore Corp., Bedford, Mass.). The TCA-insolubleproteins were precipitated onto the filter disc by a 10 min fixation with 5% TCA, followed by filtration under vacuum and three 10 minute rinses with 95% ethanol. The filters were dried at room temperature, cut from the milltitier plate and transferred to scintillation vials. TCA-precipitable counts were assayed in 5 ml of Scintisol (Isolab, Akron, Ohio). The inhibitory activity of a compound was plotted versus the concentration and an IC50 value (that concentration of the compound required to decrease cellular translational activity by 50%) was derived for each compound.

[5] = tested on: HSV-2, strain MS; experiment: In vivo anti-HSV efficacy, prophylactic guinea pig model of HSV infection; conditions: 60 mg per kg s.c., T.I.D., 10 days; for Neurological Dysfunction (%): percentage of animals developing loss of bladder/hindlimb control, placebo 66; for MLS (Maximum Lesion Scores): scale of 1 to 4, first dose 24 hours before infection, placebo 2.22
Method: The in vivo assessment of anti-HSV efficacy was determined in the prophylactic guinea pig model of HSV infection described by Stansberry et al. (1982). Dosing of guinea pigs comprised an initial treatment with test compound given 24 hours prior to virus infection and subsequent administration of the compound every eight hours (T.I.D.) for a total of 10 days. Test compounds were administered subcutaneously in 0.5% buffered methyl cellulose at a dose of 60 mg per kg body weight of the animal. Animals were monitered daily for the development of genital lesions and neurological symptomology, both of which were recorded and compared to the results obtained with parallel groups which received placebo or acyclovir. Efficacy was evaluated for each compound by scoring the ability of the compound to ameliorate genital lesions produced by infection with HSV-2, strain MS, expressed as Maximum Lesson Scores (MLS) on a scale of 1 (least lessions) to 4 (severe lessons).

[6] = tested on: HSV; conditions: humans; cited from earlier work
[7] = tested on: HSV-1; conditions: against HSV-1; cited from earlier work
[8] = tested on: HSV-2; conditions: against HSV-2; cited from earlier work
[9] = tested on: herpes virus; conditions: mammals; cited from earlier work
[10] = Human alphaherpesvirus 2, moi 5 pfu/cell, read-out: ANTI-HSV ACTIVITY HSV-β-Gal ASSAY IC50
[11] = Human alphaherpesvirus 2, Repeat, moi 5 pfu/cell, read-out: ANTI-HSV ACTIVITY HSV-β-Gal ASSAY IC50 (repeat)

| Structure (SMILES) | IC50 [1, 10] | CC50 at 24 h [4] | other results |
| --- | --- | --- | --- |
| O=Cc1c(O)c2cc(Cl)ccc2n(Cc2ccccc2)c1=O [Formula 1.6] | 4 µg/mL | 15 µg/mL | IC50 [2]: 17 µM; Fall in MBP ([3]; 25 mpk): 48 mm Hg |
| Nc1nc2c(ncn2COCCO)c(=O)[nH]1 [Acyclovir, 9-[(2-hydroxyethoxy)methyl]guanine, reference compound] | – | – | Neurological Dysfunction (%) [5]: 44%; MLS (Maximum Lesion Scores) [5]: 1.61 |
| Cc1ccc2c(c1)c(O)c(C=O)c(=O)n2Cc1ccccc1 [Formula 1.5] | 4 µg/mL | 16 µg/mL | IC50 [2]: 90 µM; Fall in MBP ([3]; 50 mpk): 40 mm Hg |
| CCCCCCCn1c(=O)c(C=O)c(O)c2ccccc21 [Formula 1.4] | 4 µg/mL | 32 µg/mL | IC50 [1, 11]: 4 µg/mL |
| CCN(CC)CC(=O)Nc1c(C)cccc1C [lidocaine, 2-(diethylamino)-N-(2,6-dimethylphenyl)acetamide] | – | – | treatment of HSV oral and genital lesions (in words) [6]: particularly effective in the treatment of HSV oral and genital lesions in humans; antiviral activity in cell culture (in words) [7]: antiviral agent in cell culture against HSV-1 and HSV-2; antiviral activity in cell culture (in words) [8]: antiviral agent in cell culture against HSV-1 and HSV-2; treatment of herpes virus infections (in words) [9]: able to treat herpes virus infections of mammals |
| Cn1c(=O)c(C=O)c(O)c2ccccc21 [Formula 1.7] | 7 µg/mL | 56 µg/mL | IC50 [1, 11]: 7 µg/mL |
| O=Cc1c(O)c2ccccc2n(Cc2ccccc2)c1=O [Formula 1.8] | 7 µg/mL | 29 µg/mL | – |
| Cc1cccc2c(O)c(C=O)c(=O)n(Cc3ccccc3)c12 [Formula 1.3] | 3 µg/mL | 29 µg/mL | IC50 [2]: 10 µM; Fall in MBP ([3]; 25 mpk): 7 mm Hg |

Continued, in another order:

| IC50 [1, 10] | Structure (SMILES) | CC50 at 24 h [4] | other results |
| --- | --- | --- | --- |
| 7 µg/mL | CC1(C)C(=O)C(C=O)=C(O)c2ccccc21 [Formula 1.16] | 34 µg/mL | – |
| 13 µg/mL | O=Cc1c(O)c2cc(O)ccc2n(Cc2ccccc2)c1=O [Formula 1.12] | – | – |
| 8 µg/mL | CCCCCCn1c(=O)c(C=O)c(O)c2ccccc21 [Formula 1.11] | 20 µg/mL | – |
| 10 µg/mL | O=Cc1c(O)c2cc(OCc3ccccc3)ccc2n(Cc2ccccc2)c1=O [Formula 1.10] | 32 µg/mL | – |
| 18 µg/mL | COc1ccc(OCCCOCn2c(=O)c(C=O)c(O)c3ccccc32)c(Cl)c1 [Formula 1.14] | – | – |
| 5 µg/mL | O=Cc1c(O)c2ccc(Cl)cc2n(Cc2ccccc2)c1=O [Formula 1.15] | 23 µg/mL | – |
| 8 µg/mL | O=Cc1c(O)c2ccccc2n(-c2ccccc2)c1=O [Formula 1.9] | 12 µg/mL | IC50 [2]: 18 µM; Neurological Dysfunction (%) [5]: 0%; MLS (Maximum Lesion Scores) [5]: 0.67 |
